Reference: patent publication US10071107B2, “Pharmaceutical composition for prevention, treatment or delay of Alzheimer's disease or dementia containing G protein-coupled receptor 19 agent as active ingredient” (SEOUL NATIONAL UNIVERSITY R&DB FOUNDATION, priority 2015, dated 2018)

Columns and labels:
[1] = system: Alzheimer's mouse model (5×FAD); test: Morris water maze (spatial learning, probe test); type: in vivo; conditions: 1 mg/kg twice a week, total 20 times
Protocol: [Experimental Method: Morris Water maze] An acryl-made platform having a diameter of 10 cm was installed in a circular water tank having a size of diameter×height=150 cm×80 cm and a camera was installed at the center of the water tank on the ceiling where the water tank was placed. Around the water tank, a horizontal cue, a vertical grid cue, and a circular object cue were disposed, respectively. For the experimental preparation, water at about 26° C. was filled in the water tank up to a height of about 1 cm from the top of the platform and a white water paint was dissolved.
At a first experimental day, the mouse was flooded at one position of the prepared water tank and swam for 3 minutes and then induced to move to the platform location by an experimenter's hand after 3 minutes and left for 1 minute on the platform. After 1 minute, the mouse was lifted and covered by both hands and put in a cage again after 1 minute. This process was repeated three times. […] The process was repeated everyday until a difference between mouse groups was decreased. At the final experimental day, the mouse was flooded in the water tank after removing the platform in the water tank and a video for 90 seconds was recorded and then a moving path and the number of platform pass times of the mouse in the water tank, a time latency of the platform location, and the like were analyzed by using analysis software.
After 1 mg/kg of PBS or sodium taurodeoxycholate was injected to a control mouse and an Alzheimer's mouse (4 per group) twice a week and a total of 20 times, a result of evaluation a spatial learning ability through a water maze experiment was illustrated in FIG. 2. It was verified that a time required when the Alzheimer's mouse found the platform was shortened by administrating the sodium taurodeoxycholate drug.
After 1 mg/kg of PBS or sodium taurodeoxycholate was injected to a control mouse and an Alzheimer's mouse (more than 10 per group) twice a week and a total of 20 times, a mouse behavior pattern was tracked in the water tank without the platform. A representative image of the result of tracking the mouse movement in the water tank without the platform was illustrated in FIG. 3.
In the above experiment, the result of measuring the number of times when the mouse crossed the platform location and a time latency at the platform location was illustrated in FIG. 4 and in the sodium taurodeoxycholate administration mouse group, it was verified that the degree of memorizing the platform was high.

[2] = system: Alzheimer's animal model (5×FAD); type: in vivo, mouse; conditions: 1 mg/kg twice a week, total 20 times
[3] = system: Alzheimer's animal model (5×FAD); test: TUNEL staining of apoptotic region in brain tissue; type: in vivo, mouse; conditions: frontal cortex, FIG. 8
Protocol: [Experimental Method: Tissue fluorescent staining] A mouse was anesthetized, the limbs were fixed and then the mouse was cut to expose the heart by scissors and tweezers. The upper right atrium was slightly cut by the scissors and punctured, a needle was put in the left ventricle, and PBS was injected and perfused. When the colors of the blood vessel and the organs turned to white, a 4% paraformaldehyde (PFA) solution was replaced and injected until muscle contraction occurred and the soles were hard. […] The cut tissue piece was attached on the slide by using a brush and blocked for preventing a nonspecific antibody binding, and then reacted with a specific antibody (coupled with a fluorescence) to a protein to be reported. […] The photographed image was converted into numeral values by measuring the fluorescent strength for each fluorescence by analysis software.
The brain tissue of the Alzheimer's model mouse administrated with the drug was extracted and a reduction of the lesion such as an apoptotic lesion in the frontal cortex and the hippocampus area was measured by fluorescent-staining, and the result was illustrated in FIG. 8. The PBS or sodium taurodeoxycholate was administrated in the Alzheimer's mouse and a region damaged by apoptosis in the frontal cortex of the administrated mouse was analyzed by TUNEL staining. […]

Alzheimer's animal model [4] = test: Blood analysis of inflammatory substances (bioplex); type: in vivo, mouse; conditions: 1 mg/kg twice per week, total 20 times; FIG. 9
Protocol: [Experimental Method: Blood analysis] The blood was obtained from the mouse by cardiac blood collection or orbital blood collection. For analyzing the inflammatory substance, the obtained blood was left for 2 hours at room temperature and centrifuged, a supernatant was taken, and each inflammatory substance was quantitatively analyzed by using a kit and equipment for bioplex. In order to analyze biochemical and hematopoietic cells, the obtained blood was put in an appropriate tube or container and applied to a biochemical analyzer and a hematology analyzer, respectively, to obtain data. FIG. 9 illustrates a result of analyzing an inflammatory substance in the blood by extracting the blood of the mouse after 1 mg/kg of PBS or sodium taurodeoxycholate is injected to a control mouse and an Alzheimer's mouse twice per week and a total of 20 times.

Alzheimer's animal model [5] = test: Blood analysis of biochemical components (metabolites); type: in vivo, mouse; conditions: 1 mg/kg twice per week, total 20 times; FIG. 10
Protocol: [Experimental Method: Blood analysis] The blood was obtained from the mouse by cardiac blood collection or orbital blood collection. For analyzing the inflammatory substance, the obtained blood was left for 2 hours at room temperature and centrifuged, a supernatant was taken, and each inflammatory substance was quantitatively analyzed by using a kit and equipment for bioplex. In order to analyze biochemical and hematopoietic cells, the obtained blood was put in an appropriate tube or container and applied to a biochemical analyzer and a hematology analyzer, respectively, to obtain data. After 1 mg/kg of PBS or sodium taurodeoxycholate is injected to the control mouse and the Alzheimer's mouse twice per week and a total of 20 times, the blood of the mouse was extracted and then the biochemical components in the blood were analyzed. The result was illustrated in FIG. 10.

[6] = probe test without platform, FIG. 4

Structure (SMILES): C[C@H](CCC(=O)NCCS(=O)(=O)[O-])[C@H]1CC[C@H]2[C@@H]3CC[C@@H]4C[C@H](O)CC[C@]4(C)[C@H]3C[C@H](O)[C@]12C.[Na+] [sodium taurodeoxycholate]
- number of times of crossing the platform location [1, 6]: significantly increased
- time latency at the platform location [1, 6]: significantly increased
- time required when the Alzheimer's mouse found the platform ([1]; water maze, FIG. 2): shortened
- moving pattern to the position of the platform ([1]; water tank without platform, FIG. 3): more actively observed
- degree of memorizing the platform ([1]; water tank without platform, FIG. 4): high
- expression of iNOS ([2]; frontal cortex area, FIG. 7): significantly reduced
- cell distribution of astrocyte ([2]; frontal cortex, FIGS. 5 and 6): significantly reduced
- cell distribution of microglia ([2]; frontal cortex, FIGS. 5 and 6): significantly reduced
- formation of the amyloid β plague ([2]; frontal cortex, FIGS. 5 and 6): significantly reduced
- astrocyte cell distribution ([2]; hippocampus area, FIGS. 5 and 6): significantly reduced
- apoptotic region in the brain tissue [3]: reduced
- amount of CCL3 in the blood (Alzheimer's animal model [4]): increased
- amount of glucose in the blood (Alzheimer's animal model [5]): decreased
